Key:
[1] = biological target: T1, κ-opioid receptor (Homo sapiens (Human), UniProt P41145); experiment: κ-opioid receptor [35S]GTPγS functional assay, HEK-293 cells (Table 6); type: biochemical
Procedure: κ-Opioid Receptor Functional Assay Procedures: Functional [^35S]GTPγS binding assays were conducted as follows. κ opioid receptor membrane solution was prepared by sequentially adding final concentrations of 0.026 μg/μl κ membrane protein (in-house), 10 μg/mL saponin, 3 μM GDP and 0.20 nM [^35S]GTPγS to binding buffer (100 mM NaCl, 10 mM MgCl2, 20 mM HEPES, pH 7.4) on ice. The prepared membrane solution (190 μl/well) was transferred to 96-shallow well polypropylene plates containing 10 μl of 20× concentrated stock solutions of agonist prepared in DMSO. Plates were incubated for 30 min at a temperature of about 25° C. with shaking. Reactions were terminated by rapid filtration onto 96-well Unifilter GF/B filter plates (Perkin Elmer, Shelton, Conn.) using a 96-well tissue harvester (Packard) and followed by three filtration washes with 200 μl ice-cold binding buffer (10 mM NaH2PO4, 10 mM Na2HPO4, pH 7.4). Filter plates were subsequently dried at 50° C. for 2-3 hours. Fifty μl/well scintillation cocktail (Perkin Elmer, Shelton, Conn.) was added and plates were counted in a Packard Top-Count for 1 min/well. […]
The following TABLE 6 provides results on the activity response of certain Compounds of the Invention at the μ- and κ-opioid receptors determined as described above using HEK-293 cells.

[2] = biological target: recombinant human kappa opioid receptor (κ) (Homo sapiens (Human), UniProt P41145); experiment: κ-opioid receptor radioligand binding assay ([3H]-U69,593); conditions: binding affinity
Procedure: κ-Opioid Receptor Binding Assay Procedures: Membranes from HEK-293 cells, CHO cells or U-2 OS cells expressing the recombinant human kappa opioid receptor (κ) were prepared by lysing cells in ice cold hypotonic buffer (2.5 mM MgCl2, 50 mM HEPES, pH 7.4) (10 mL/10 cm dish) followed by homogenization with a tissue grinder/Teflon pestle. Membranes from a cell line naturally expressing kappa opioid receptor can also be used. Membranes were collected by centrifugation at 30,000×g for 15 min at 4° C. and pellets were resuspended in hypotonic buffer to a final concentration of 1-3 mg/mL. Protein concentrations were determined using the BioRad protein assay reagent with bovine serum albumen as standard. Aliquots of κ receptor membranes were stored at −80° C.
Radioligand dose displacement assays used 0.4 nM [^3H]-U69,593 (GE Healthcare, Piscataway, N.J.; 40 Ci/mmole) with 15 μg membrane protein (recombinant opioid receptor expressed in HEK 293 cells; in-house prep) in a final volume of 200 μl binding buffer (5% DMSO, 50 mM Trizma base, pH 7.4). Non-specific binding was determined in the presence of 10 μM unlabeled naloxone or U69,593. All reactions were performed in 96-well polypropylene plates for 1 hour at a temperature of about 25° C. Binding reactions were terminated by rapid filtration onto 96-well Unifilter GF/C filter plates (Perkin Elmer, Shelton, Conn.) presoaked in 0.5% polyethylenimine (Sigma). Harvesting was performed using a 96-well tissue harvester (Perkin Elmer, Shelton, Conn.) followed by five filtration washes with 200 μl ice-cold binding buffer. Filter plates were subsequently dried at 50° C. for 1-2 hours. Fifty μl/well scintillation cocktail (Perkin Elmer, Shelton, Conn.) was added and plates were counted in a Packard Top-Count for 1 min/well.

[3] = biological target: T2, μ-opioid receptor (Homo sapiens (Human), UniProt P35372); experiment: μ-opioid receptor [35S]GTPγS functional assay, HEK-293 cells (Table 6); type: biochemical
Method in brief: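 [35S]GTPγS (0.20 nM) binding in HEK-293 membranes expressing recombinant receptor (0.026 mg/mL protein), with GDP (3 mM) and saponin, HEPES buffer pH 7.4, 30 min at about 25° C. Bound radioactivity collected by filtration and counted. Emax (%) expressed relative to DAMGO from sigmoidal dose-response fits.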

[4] = biological target: T1, κ-opioid receptor; experiment: κ-opioid receptor [35S]GTPγS functional assay, U-2 OS cells (Table 5); type: biochemical
Method in brief: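 [35S]GTPγS binding in κ receptor membranes (0.026 μg/μl protein) with 10 μg/mL saponin, 3 μM GDP and 0.20 nM [35S]GTPγS in pH 7.4 HEPES/NaCl/MgCl2 buffer. Agonist incubation lasted 30 min at about 25 °C, followed by filtration and scintillation counting. Emax is expressed relative to U69,593.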

[5] = biological target: T2, μ-opioid receptor; experiment: μ-opioid receptor [35S]GTPγS functional assay, U-2 OS cells (Table 5); type: biochemical; conditions: relative to DAMGO
Method in brief: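 Membranes (0.026 mg/mL) from cells expressing recombinant human μ-opioid receptor in a U-2 OS background were incubated with 0.20 nM [35S]GTPγS, 3 mM GDP and saponin in 20 mM HEPES pH 7.4, 100 mM NaCl, 10 mM MgCl2 for 30 min at about 25 °C. Filter-bound radioactivity counted; sigmoidal dose-response fits gave values, Emax relative to DAMGO.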

[6] = biological target: human opioid receptor-like receptor (ORL-1) (Homo sapiens (Human), UniProt P41146); experiment: ORL-1 receptor radioligand binding assay ([3H]-nociceptin); conditions: binding affinity, read-out: Ki (nM) ORL-1
Procedure: ORL-1 Receptor Binding Assay Procedure: Membranes from recombinant HEK-293 cells expressing the human opioid receptor-like receptor (ORL-1) (Perkin Elmer, Shelton, Conn.) was prepared by lysing cells in ice-cold hypotonic buffer (2.5 mM MgCl2, 50 mM HEPES, pH 7.4) (10 ml/10 cm dish) followed by homogenization with a tissue grinder/Teflon pestle. Membranes were collected by centrifugation at 30,000×g for 15 min at 4° C. and pellets resuspended in hypotonic buffer to a final concentration of 1-3 mg/ml. Protein concentrations were determined using the BioRad protein assay reagent with bovine serum albumen as standard. Aliquots of the ORL-1 receptor membranes were stored at −80° C.
Radioligand binding assays (screening and dose-displacement) use 0.1 nM [^3H]-nociceptin (Perkin Elmer, Shelton, Conn.; 87.7 Ci/mmole) with 12 μg membrane protein in a final volume of 500 μl binding buffer (10 mM MgCl2, 1 mM EDTA, 5% DMSO, 50 mM HEPES, pH 7.4). Non-specific binding was determined in the presence of […] unlabeled nociceptin (American Peptide Company). […] Fifty μl/well scintillation cocktail (Perkin Elmer, Shelton, Conn.) was added and plates are counted in a Packard Top-Count for 1 min/well. The data from screening and dose-displacement experiments were analyzed using Microsoft Excel and the curve fitting functions in GraphPad PRISM™, v. […]

[7] = biological target: T2, μ-opioid receptor; experiment: μ-opioid receptor [35S]GTPγS functional assay, HEK-293 or CHO cells (Table 4); type: biochemical; conditions: relative to DAMGO
Method in brief: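 Membranes from HEK-293, CHO or U-2 OS cells (or commercial) expressing recombinant μ receptor; 0.20 nM [35S]GTPγS, 3 mM GDP, saponin, in 100 mM NaCl/10 mM MgCl2/20 mM HEPES pH 7.4.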

[8] = biological target: T1, κ-opioid receptor; experiment: κ-opioid receptor [35S]GTPγS functional assay, HEK-293 or CHO cells (Table 4); type: biochemical
Procedure: κ-Opioid Receptor Functional Assay Procedures: Functional [^35S]GTPγS binding assays were conducted as follows. κ opioid receptor membrane solution was prepared by sequentially adding final concentrations of 0.026 μg/μl κ membrane protein (in-house), 10 μg/mL saponin, 3 μM GDP and 0.20 nM [^35S]GTPγS to binding buffer (100 mM NaCl, 10 mM MgCl2, 20 mM HEPES, pH 7.4) on ice. The prepared membrane solution (190 μl/well) was transferred to 96-shallow well polypropylene plates containing 10 μl of 20× concentrated stock solutions of agonist prepared in DMSO. Plates were incubated for 30 min at a temperature of about 25° C. with shaking. Reactions were terminated by rapid filtration onto 96-well Unifilter GF/B filter plates (Perkin Elmer, Shelton, Conn.) using a 96-well tissue harvester (Packard) and followed by three filtration washes with 200 μl ice-cold binding buffer (10 mM NaH2PO4, 10 mM Na2HPO4, pH 7.4). Filter plates were subsequently dried at 50° C. for 2-3 hours. Fifty μl/well scintillation cocktail (Perkin Elmer, Shelton, Conn.) was added and plates were counted in a Packard Top-Count for 1 min/well.
κ GTP Emax (%) is the maximal effect elicited by a compound relative to the effect elicited by U69,593.
In TABLE 4, activity response of certain Compounds of the Invention to the μ- and κ-opioid receptors was determined as described above for functional assays using HEK-293 or CHO cells.

Compound CN1CC[C@]23C[C@H](C(=O)NCCc4ccccc4)C[C@@]2(O)[C@H]1Cc1ccc(O)cc13 [Compound 108, (2S,3aS,4R,9bS)-3a,8-dihydroxy-12-methyl-N-phenethyl-1,2,3,3a,4,5-hexahydro-4,9b-(epiminoethano)cyclo-penta[a]naphthalene-2-carboxamide] has an Emax ([1]; relative to U69,593) of 40.6 ± 3.3%, an EC50 ([1]; κ GTP) of 138 ± 35 nM and a Ki [2] of 9.29 ± 2.14 nM. It also gave an Emax ([3]; relative to DAMGO) of 83.3 ± 5.17% and an EC50 ([3]; μ GTP) of 12.4 ± 2.76 nM.

N=C(N)NCCNC(=O)[C@@H]1C[C@]23CCN(CC4CC4)[C@H](Cc4ccc(O)cc42)[C@]3(O)C1 [Compound 6, (2R,3aS,4R,9bS)-12-(cyclopropylmethyl)-N-(2-guanidinoethyl)-3a,8-dihydroxy-1,2,3,3a,4,5-hexahydro-4,9b-(epimino-ethano)cyclopenta[a]naphthalene-2-carboxamide] gave a Ki [2] of 0.098 ± 0.032 nM, an Emax ([4]; relative to U69,593) of 98 ± 3.21% and an EC50 ([4]; κ GTP) of 0.87 ± 0.16 nM. For the same compound, the Emax [5] was 57 ± 2.08%, the Ki [6] was 10300 ± 2140 nM and the Emax [7] was 0%. For the same compound, the Emax ([8]; relative to U69,593) was 48.6 ± 0.98% and the EC50 ([8]; κ GTP) was 0.86 ± 0.16 nM.
